# Measured values taken from US20240383869A1, “ARYLACETYL INHIBITORS OF TG2 AND USES THEREOF” (UNIVERSITY OF OTTAWA, priority 2021, published 2024).
# Where a SMILES comes first, the peptide text is derived from it. [ ]: non-standard residue; d: D form. The star is where a group is joined. DON = [N-]=[N+]=CC(=O)CC[C@H](N)C(=O)O; Cbz = O=C(OCc1ccccc1)*
# Assays:
# [1] = molecular target: T1, hTG2 (Homo sapiens, UniProt P21980); assay: In vitro GTP binding assay (BODIPY GTP-γ-S fluorescence); conditions: inhibitor 2×KI, 30 minutes at 25° C.; 3 μM BODIPY GTP-γ-S
# T1 sequence (P21980 1-687): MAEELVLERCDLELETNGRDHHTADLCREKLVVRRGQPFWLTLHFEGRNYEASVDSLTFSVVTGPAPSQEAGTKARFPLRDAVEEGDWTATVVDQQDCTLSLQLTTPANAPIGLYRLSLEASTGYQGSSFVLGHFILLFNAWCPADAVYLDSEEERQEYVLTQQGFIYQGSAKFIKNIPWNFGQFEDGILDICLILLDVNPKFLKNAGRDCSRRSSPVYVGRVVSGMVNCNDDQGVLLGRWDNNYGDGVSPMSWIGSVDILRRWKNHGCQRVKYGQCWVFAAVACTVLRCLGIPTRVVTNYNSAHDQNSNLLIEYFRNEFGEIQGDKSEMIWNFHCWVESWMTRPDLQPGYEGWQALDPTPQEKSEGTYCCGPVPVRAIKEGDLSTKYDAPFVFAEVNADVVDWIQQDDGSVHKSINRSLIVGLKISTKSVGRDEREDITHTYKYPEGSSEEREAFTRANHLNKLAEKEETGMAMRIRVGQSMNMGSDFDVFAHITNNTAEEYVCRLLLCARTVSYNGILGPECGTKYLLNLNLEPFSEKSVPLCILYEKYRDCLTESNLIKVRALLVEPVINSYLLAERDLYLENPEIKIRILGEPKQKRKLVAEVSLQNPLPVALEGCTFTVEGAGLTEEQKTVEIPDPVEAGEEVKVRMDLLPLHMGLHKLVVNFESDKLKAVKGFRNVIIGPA
# Experimental: Previously we proposed a mechanism of action for the NC9, VA4 and AA9 inhibitors based on their ability to react covalently with the open conformation of TG2, locking the enzyme in that conformation and thereby abolishing the enzyme's ability to bind GTP and act as a G-protein. […] We used the same in vitro GTP binding assay to measure the ability of representative phenylacetyl inhibitors 67 and 72 to abolish GTP binding, as follows:
# In vitro GTP binding assay. GTP binding was measured using a method similar to that reported previously (McEwen, D. P. et al., “Fluorescent BODIPY-GTP analogs: Real-time measurement of nucleotide binding to G proteins.” Anal. Biochem. 2001, 291 (1), 109-117). […] The buffer was then exchanged to 100 mM MOPS (pH=7.0), 1 mM EGTA and 5 mM MgCl2 to remove calcium via dialysis using a 10-kDa molecular weight cut off membrane. The fluorescent GTP analog was added to give a final concentration of 3.0 μM and fluorescence was measured on a microplate reader after 10 minutes of incubation (Ex/Em: 490/520 nm).
# [2] = test system: TG2 relative to other human transglutaminases; conditions: shown previously (Akbar et al. 2017); cited from earlier work
# [3] = test system: SCC-13 cells; conditions: shown previously; read-out: concentration reducing ECS cell invasion through Matrigel by ~50% relative to vehicle-treated cells; cited from earlier work
# [4] = molecular target: T1, hTG2; conditions: shown previously; cited from earlier work
# [5] = test system: glioblastoma multiforme (GBM) cell lines; conditions: Zhang et al. 2013; cited from earlier work
Compound,selectivity for TG2 compared to the other major transglutaminase isozymes [2],EC50 [3],proliferation of GBM cell lines [5],also measured
"C=CC(=O)NCCCC[C@H](NC(=O)Cc1ccccc1)C(=O)N1CCN(C(=O)c2cccc3ccccc23)CC1 [Inhibitor 67, (S)-N-(6-(4-(1-naphthoyl)piperazin-1-yl)-6-oxo-5-(2-phenylacetamido)hexyl)acrylamide]",–,–,–,inhibition of GTP binding of hTG2 [1]: abolished the GTP binding ability
C=CC(=O)NCCCC[C@H](NC(=O)OCc1ccccc1)C(=O)NCCOCCOCCNS(=O)(=O)c1cccc2c(N(C)C)cccc12 [NC9],good selectivity for TG2,~20 µM,–,–
C=CC(=O)NCCCC[C@H](NC(=O)OCc1ccccc1)C(=O)N1CCN(S(=O)(=O)c2cccc3c(N(C)C)cccc23)CC1 [VA4],good selectivity for TG2,3.9 µM,–,suppression of TG2 binding of GTP-γ-S-FL BODIPY [4]: suppress the ability of TG2 to bind GTP-γ-S-FL BODIPY
COC(=O)[C@H](CC(C)C)NC(=O)[C@@H]1CCCN1C(=O)[C@@H](NC(=O)[C@H](CCC(=O)C=[N+]=[N-])NC(=O)OCc1ccccc1)C(C)C [Z-DON] (Cbz-[DON]VPL-OMe),–,–,reduce proliferation in two out of three,–
CN(C)c1cccc2c(S(=O)(=O)NCCCCCN)cccc12 [monodansylcadaverine],–,–,reduce proliferation in two out of three,–
